EP3985010A1, “SPIROCYCLIC INHIBITORS OF HEPATITIS B VIRUS” (priority 2020, dated 2022)

Tested on: HBV
Assay: Anti-HBV activity in vitro: quantification of extracellular HBV DNA by direct qPCR in HepAD38 cells
Assay type: cell-based
Conditions: Hepatitis B virus, doxycycline-free medium, 96 hours at 37°C, 8-point dose-response curve, read-out: HBV inh EC50
Text: HepAD38 cell line (Ladner et al., Antimicrob Agents Chemother, 1997, 41, 1715-20) was used for HBV inhibition assays. HepAD38 is a subclone, derived from hepatoblastoma cell line HepG2 (ATCC® Number: HB-8065™), that expresses HBV genome under the transcriptional control of a tetracycline-responsive promoter in a TET-OFF system: addition of doxycycline, an antibiotic belonging to the class of tetracycline, suppresses HBV replication, while its removal switches on the process allowing HBV viral particles release in the cell supernatant. HepAD38 cell line is maintained in DMEM/F12, supplemented with 10% of fetal bovine serum, 1% of glutamine, 1% of penicillin/streptomycin, 0.4 mg/ml G418 and 0,3 ug/ml tetracycline. For the HBV inhibition assay, doxycycline-free medium is used in order to allow virion production.
HBV inhibition activity in vitro was performed in 96 multiwell plates. During the initial (primary) screening, compounds were first tested in triplicates at concentrations of 0.02 µM, 0.1µM, 0.5µM and 1µM. For selected compounds, an 8-point dose-response curve was obtained using 1:2 serial dilutions (starting from 0.01µM, 0.1µM, 0.4µM or 5 µM, depending on the degree of inhibition observed during the primary screening). From the dose-response curves, half maximal effective concentration (EC50) could be calculated (see also below).
In more detail, compounds - typically dissolved in DMSO stock solutions - were diluted to 2x the final desired concentration in 100 µl of the above medium (without doxycycline) and plated in three replicates in the 96-well plates.
Simultaneously, HepAD38 cells - extensively pre-washed in doxycycline-free medium in order to induce HBV production - were suspended at 2^∗10^4 cells in 100 µl of doxycycline-free medium and added to each well of the plate, to yield a final assay volume of 200 µl DMSO - used for stock solutions and compounds dilutions - which was always present in the assays at a final concentration of 0.5%.
Plates were then incubated 96 hours at 37°C and then subjected to cell viability assays and extracellular HBV quantification, in order to evaluate both the cytotoxic potential and the antiviral activity of compounds. Cytotoxicity was assessed by a commercial fluorescence assay that measures the metabolic activity of cells, directly related to cell viability (Cell Titer Blue, Promega). Anti-HBV activity was evaluated by quantification of extracellular HBV DNA with direct qPCR. In particular, supernatant was collected and centrifuged for cell debris clarification, viral DNA was extracted from virions by addition of lysis buffer (1 mM 1,4-dithiothreitol, 0.2% sodium dodecyl sulphate) and incubated at 95°C for 10 min. Samples were then diluted 1:40 and real time PCR amplification was performed with SYBR green assay (Power SYBR™ Green PCR Master Mix-Thermo Fisher Scientific) and specific HBV primer (HBV-DF:5'-[…]-3' (SEQ ID No. 1), HBV-DR:5'-[…]-3' (SEQ ID No. 2)).
Antiviral activity data for each compound are reported as EC50 value (see Table 1 legend). Excel and Graphpad Prism programs are typically used for data elaboration and EC50 calculation.

| SMILES | EC50 [nM] |
| --- | --- |
| C[C@@H](NC(=O)C(=O)N1CC[C@]2(COc3c(cn(C)c3C(=O)Nc3ccc(F)c(C(F)F)c3)S(=O)(=O)N2)C1)C(F)(F)F [Example E6, (R)-N-(3-(difluoromethyl)-4-fluorophenyl)-7'-methyl-1-(2-oxo-2-(((R)-1,1,1-trifluoropropan-2-yl)amino)acetyl)-2'H,4'H,7'H-spiro[pyrrolidine-3,3'-pyrrolo[3,4-b][1,4,5]oxathiazepine]-6'-carboxamide 1',1'-dioxide] | < 500 |
| C[C@@H](NC(=O)C(=O)N1CCC2(COc3c(cn(C)c3C(=O)Nc3ccc(F)c(F)c3)S(=O)(=O)N2)C1)C(F)(F)F (stereo partly drawn) [Example E1, N-(3,4-difluorophenyl)-7'-methyl-1-(2-oxo-2-(((R)-1,1,1-trifluoropropan-2-yl)amino)acetyl)-2'H,4'H,7'H-spiro[pyrrolidine-3,3'-pyrrolo[3,4-b][1,4,5]oxathiazepine]-6'-carboxamide 1',1'-dioxide] | < 500 |
| Cn1cc2c(c1C(=O)Nc1ccc(F)c(C(F)F)c1)OC[C@@]1(CCN(C(=O)C(=O)NCC(F)(F)F)C1)NS2(=O)=O [Example E27, (S)-N-(3-(difluoromethyl)-4-fluorophenyl)-7'-methyl-1-(2-oxo-2-((2,2,2-trifluoroethyl)amino)acetyl)-2'H,4'H,7'H-spiro[pyrrolidine-3,3'-pyrrolo[3,4-b][1,4,5]oxathiazepine]-6'-carboxamide 1',1'-dioxide] | < 500 |
| C[C@@H](NC(=O)C(=O)N1CCC2(COc3c(c(Cl)n(C)c3C(=O)Nc3ccc(F)c(F)c3)S(=O)(=O)N2)C1)C(F)(F)F (stereo partly drawn) [Example E3, 8'-chloro-N-(3,4-difluorophenyl)-7'-methyl-1-(2-oxo-2-(((R)-1,1,1-trifluoropropan-2-yl)amino)acetyl)-2'H,4'H,7'H-spiro[pyrrolidine-3,3'-pyrrolo[3,4-b][1,4,5]oxathiazepine]-6'-carboxamide 1',1'-dioxide] | < 500 |
| C[C@@H](NC(=O)C(=O)N1CC2(COc3c(cn(C)c3C(=O)Nc3ccc(F)c(Cl)c3)S(=O)(=O)N2)C1)C(F)(F)F [Example E9, (R)-N-(3-chloro-4-fluorophenyl)-7'-methyl-1-(2-oxo-2-((1,1,1-trifluoropropan-2-yl)amino)acetyl)-2'H,4'H,7'H-spiro[azetidine-3,3'-pyrrolo[3,4-b][1,4,5]oxathiazepine]-6'-carboxamide 1',1'-dioxide] | < 500 |
| C[C@H](NC(=O)C(=O)N1CC[C@]2(COc3c(cn(C)c3C(=O)Nc3ccc(F)c(Cl)c3)S(=O)(=O)N2)C1)C(F)(F)F [Example E22, (R)-N-(3-chloro-4-fluorophenyl)-7'-methyl-1-(2-oxo-2-(((S)-1,1,1-trifluoropropan-2-yl)amino)acetyl)-2'H,4'H,7'H-spiro[pyrrolidine-3,3'-pyrrolo[3,4-b][1,4,5]oxathiazepine]-6'-carboxamide 1',1'-dioxide] | < 500 |
| Cn1cc2c(c1C(=O)Nc1ccc(F)c(C(F)F)c1)OC[C@@]1(CCN(C(=O)C(=O)NC(C)(C)C(F)(F)F)C1)NS2(=O)=O [Example E28, (S)-N-(3-(difluoromethyl)-4-fluorophenyl)-7'-methyl-1-(2-oxo-2-((1,1,1-trifluoro-2-methylpropan-2-yl)amino)acetyl)-2'H,4'H,7'H-spiro[pyrrolidine-3,3'-pyrrolo[3,4-b][1,4,5]oxathiazepine]-6'-carboxamide 1',1'-dioxide] | < 500 |
| C[C@@H](NC(=O)C(=O)N1CC[C@]2(COc3c(c(Cl)n(C)c3C(=O)Nc3ccc(F)c(C(F)F)c3)S(=O)(=O)N2)C1)C(F)(F)F [Example E34, (R)-8'-chloro-N-(3-(difluoromethyl)-4-fluorophenyl)-7'-methyl-1-(2-oxo-2-(((R)-1,1,1-trifluoropropan-2-yl)amino)acetyl)-2'H,4'H,7'H-spiro[pyrrolidine-3,3'-pyrrolo[3,4-b][1,4,5]oxathiazepine]-6'-carboxamide 1',1'-dioxide] | < 500 |
| C[C@H](NC(=O)C(=O)N1CC2(COc3c(cn(C)c3C(=O)Nc3ccc(F)c(C(F)F)c3)S(=O)(=O)N2)C1)C(F)(F)F [Example E18, (S)-N-(3-(difluoromethyl)-4-fluorophenyl)-7'-methyl-1-(2-oxo-2-((1,1,1-trifluoropropan-2-yl)amino)acetyl)-2'H,4'H,7'H-spiro[azetidine-3,3'-pyrrolo[3,4-b][1,4,5]oxathiazepine]-6'-carboxamide 1',1'-dioxide] | < 500 |
| C[C@@H](NC(=O)C(=O)N1CC[C@]2(COc3c(c(Cl)n(C)c3C(=O)Nc3ccc(F)c(Cl)c3)S(=O)(=O)N2)C1)C(F)(F)F (stereo in doubt) [Example E33, (R)-8'-chloro-N-(3-chloro-4-fluorophenyl)-7'-methyl-1-(2-oxo-2-(((R)-1,1,1-trifluoropropan-2-yl)amino)acetyl)-2'H,4'H,7'H-spiro[pyrrolidine-3,3'-pyrrolo[3,4-b][1,4,5]oxathiazepine]-6'-carboxamide 1',1'-dioxide] | < 500 |
| C[C@@H](NC(=O)C(=O)N1CCC2(CC1)COc1c(cn(C)c1C(=O)Nc1ccc(F)c(Cl)c1)S(=O)(=O)N2)C(F)(F)F [Example E7, (R)-N-(3-chloro-4-fluorophenyl)-7'-methyl-1-(2-oxo-2-((1,1,1-trifluoropropan-2-yl)amino)acetyl)-2'H,4'H,7'H-spiro[piperidine-4,3'-pyrrolo[3,4-b][1,4,5]oxathiazepine]-6'-carboxamide 1',1'-dioxide] | < 500 |
| C[C@@H](NC(=O)C(=O)N1CC[C@@]2(COc3c(c(Cl)n(C)c3C(=O)Nc3ccc(F)c(C(F)F)c3)S(=O)(=O)N2)C1)C(F)(F)F [Example E29, (S)-8'-chloro-N-(3-(difluoromethyl)-4-fluorophenyl)-7'-methyl-1-(2-oxo-2-(((R)-1,1,1-trifluoropropan-2-yl)amino)acetyl)-2'H,4'H,7'H-spiro[pyrrolidine-3,3'-pyrrolo[3,4-b][1,4,5]oxathiazepine]-6'-carboxamide 1',1'-dioxide] | < 500 |
| C[C@H](NC(=O)C(=O)N1CCC2(CC1)COc1c(cn(C)c1C(=O)Nc1ccc(F)c(Cl)c1)S(=O)(=O)N2)C(F)(F)F [Example E12, (S)-N-(3-chloro-4-fluorophenyl)-7'-methyl-1-(2-oxo-2-((1,1,1-trifluoropropan-2-yl)amino)acetyl)-2'H,4'H,7'H-spiro[piperidine-4,3'-pyrrolo[3,4-b][1,4,5]oxathiazepine]-6'-carboxamide 1',1'-dioxide] | < 500 |
| C[C@@H](NC(=O)C(=O)N1CC[C@]2(COc3c(cn(C)c3C(=O)Nc3ccc(F)c(Cl)c3)S(=O)(=O)N2)C1)C(F)(F)F [Example E4, (R)-N-(3-chloro-4-fluorophenyl)-7'-methyl-1-(2-oxo-2-(((R)-1,1,1-trifluoropropan-2-yl)amino)acetyl)-2'H,4'H,7'H-spiro[pyrrolidine-3,3'-pyrrolo[3,4-b][1,4,5]oxathiazepine]-6'-carboxamide 1',1'-dioxide] | < 500 |
| Cn1cc2c(c1C(=O)Nc1ccc(F)c(Cl)c1)OC[C@]1(CCN(C(=O)C(=O)NC(C)(C)C(F)(F)F)C1)NS2(=O)=O [Example E21, (R)-N-(3-chloro-4-fluorophenyl)-7'-methyl-1-(2-oxo-2-((1,1,1-trifluoro-2-methylpropan-2-yl)amino)acetyl)-2'H,4'H,7'H-spiro[pyrrolidine-3,3'-pyrrolo[3,4-b][1,4,5]oxathiazepine]-6'-carboxamide 1',1'-dioxide] | < 500 |
| Cn1cc2c(c1C(=O)Nc1ccc(F)c(Cl)c1)OC[C@]1(CCN(C(=O)C(=O)NCC(F)(F)F)C1)NS2(=O)=O [Example E20, (R)-N-(3-chloro-4-fluorophenyl)-7'-methyl-1-(2-oxo-2-((2,2,2-trifluoroethyl)amino)acetyl)-2'H,4'H,7'H-spiro[pyrrolidine-3,3'-pyrrolo[3,4-b][1,4,5]oxathiazepine]-6'-carboxamide 1',1'-dioxide] | < 500 |
| C[C@@H](NC(=O)C(=O)N1CC2(COc3c(cn(C)c3C(=O)Nc3ccc(F)c(C(F)F)c3)S(=O)(=O)N2)C1)C(F)(F)F [Example E10, (R)-N-(3-(difluoromethyl)-4-fluorophenyl)-7'-methyl-1-(2-oxo-2-((1,1,1-trifluoropropan-2-yl)amino)acetyl)-2'H,4'H,7'H-spiro[azetidine-3,3'-pyrrolo[3,4-b][1,4,5]oxathiazepine]-6'-carboxamide 1',1'-dioxide] | < 500 |
